Tests used:
Type in all cases: in vivo
[1] = tested on: corn rootworm (Diabrotica undecimpunctata); assay: Use Example D: activity against eggs/larvae of the corn rootworm; conditions: 168 h; for activity: corn rootworm, in vivo; for mortality at 0.1 %: Diabrotica undecimpunctata, aqueous emulsion 0.1%, 0.2 ml pipetted into soil, 7 days at 25 C, death of eggs or newly hatched larvae
Method: Activity against eggs/larvae of the corn rootworm (Diabrotica undecimpunctata)
The compounds of the invention were made up as aqueous emulsions at a concentration of 0.1%. Into the soil in polystyrene petri dishes, containing maize seedlings (1 seedling/dish) and ca. 50 eggs of the corn rootworm (Diabrotica undecimpunctata) were pipetted 0.2 ml of these preparations. The closed dishes were left at 25 C under extended daylight conditions for 7 days. The criterion for judging the activity was the death of eggs or newly hatched larvae at the end of the test.

[2] = tested on: brown rice-hoppers (Niliparvata lugens Stal); assay: Use Example B: activity in prophylactic treatment of leaves against brown rice-hoppers; conditions: 48 h; for mortality at 0.1 %: read-out: activity
From the text: Activity in prophylactic treatment of leaves against brown rice-hoppers (Niliparvata lugens Stal)
Rice seedlings (Oryzae sativa L.) in the two leaf stage (about 10 per polystyrene pot of size 6.5 x 6.5 cm) were either untreated or […] until dripping wet, with an aqueous preparation containing 0.1 % of active material. After drying the sprayed leaves, a transparent cylinder was placed over each pot and through an opening, about 30 brown rice-hoppers (Niliparvata lugens) in the 4-5 stage, anaesthetised with carbon dioxide, were introduced into each pot. After closing the opening with a fine mesh screen, the pots were kept for 2 days at 28° C and 16 hours/day of light in the glasshouse, the amount of dead hoppers was determined. The percentage mortality was then estimated and the activity calculated using Abbott's method in comparison with the untreated controls.

Aphis fabae = assay: Activity in prophylactic treatment of leaf discs against Aphis fabae; conditions: 48 h; for mortality at 0.1 %: Aphis fabae, foliar, 0.1% aqueous preparation, field bean leaf discs infested with wingless stages, 2 days at 25 C, percentage mortality, Abbott's method
Method: From the primary leaf of field beans (Phaseolus vulgaris nanus Aschers.), 24 mm diameter discs were cut. Some of these were treated with a 0.1% aqueous preparations of compounds of the invention and these along side untreated discs were placed on filter papers with the underside of the leaves turned upwards. After drying the test pieces, they were each infested with wingless stages of Aphis fabae (approx 100 per leaf piece). The experiment was replicated 3 times. The leaves were kept on wet filter papers for 2 days at 25 C and 16 hours light per day. The percentage mortality was then estimated and the activity calculated using Abbott's method in comparison with the untreated controls.

[3] = tested on: two spotted mite (Tetranychus urticae Koch); assay: Use Example C: activity in the prophylactic treatment of feed against the two spotted mite; conditions: foliar, 0.1 % aqueous preparation, field bean leaf discs, adults and eggs counted after 3 days at 25 C, larvae after a further 7 days, Abbott's method
Method: Activity in the prophylactic treatment of feed against the two spotted mite (Tetranychus urticae Koch)
From the primary leaf of field beans (Phaseolus vulgaris nanus Aschers.) 14 mm diameter discs were cut. Some of these were treated with a 0.1 % aqueous preparations of compounds of the invention and these along side untreated discs were placed on filter papers with the underside of the leaves turned upwards. After drying the test pieces, they were each infested with six adult female Tetranychus urticae and maintained for 3 days at 25 C and 16 hours light per day. The experiment was replicated 4 times. Dead and alive adults were then counted and removed. Similarly the number of eggs laid were counted. After a further 7 days, the number of living larvae were counted, the activity calculated using Abbott's method in comparison with the untreated controls.

[4] = tested on: cotton army worm (Spodoptera littoralis); assay: Use Example F: ovicidal activity against eggs of the cotton army worm; conditions: aqueous preparation 0.1 %; one day old eggs dipped; four days; % inhibition of hatching of the eggs
From the text: Ovicidal activity against eggs of the cotton army worm (Spodoptera littoralis).
The compounds of the invention were made up as aqueous preparations at a concentration of 0.1 %. One day old eggs that had been laid on filter paper by fertilised female moths were dipped in the preparations until they were completely wet and then placed in closed petri dishes in the laboratory under extended daylight conditions for four days. The % inhibition of hatching of the eggs in comparison with untreated eggs indicates the level of activity.

[5] = tested on: cotton bollworm (Heliothis viriscens); assay: whole plant or invertebrate; conditions: 48 h, read-out: activity
Method: Activity against larvae (L1) of the cotton bollworm (Heliothis viriscens)
Compounds of the invention were made up as aqueous preparations at a concentration of 0.1 %. Into these, feed material was dipped for 2 seconds. After drying the feed material was put into into polystyrene petri dishes. After an hour, 10 L1 of the cotton bollworm (Heliothis viriscens) were counted into the dishes. The closed dishes were left for up to 7 days at 25 °C under extended daylight conditions. The % mortality of the larvae after two days indicated the level of activity.

[6] = tested on: Sheep blowfly (Lucilia sericata); assay: whole plant or invertebrate; conditions: 24 h, read-out: LCso
Method: Activity against Sheep blowfly (Lucilia sericata)
1 ml aliquots of acetone solutions or suspensions, containing test compound at various concentrations, were applied to cotton wool dental rolls (1 cm x 2 cm), contained in glass vials 2 cm diameter x 5 cm long. After drying, the treated materials were then impregnated with 1 ml of nutrient solution, infested with approximately 30 first instar larvae of sheep blow fly (Lucilia sericata), closed by a cotton wool plug and held at 25 C for 24 hours.

Boophilus microplus = assay: whole plant or invertebrate; conditions: Rhipicephalus microplus, 48 h, read-out: concentration causing 50% mortality
Method: Tickicidal activity against Boophilus microplus
9 cm diameter filter papers were impregnated with 1 ml aliquots of acetone solutions of test compound at various concentrations. The papers were allowed to dry and then folded into envelopes in which cattle tick larvae, (Boophilus microplus) were enclosed and held at 25°C and 80% R.H. for 48 hours. The percentage mortality of tick larvae was then recorded and compared with controls.

[7] = tested on: house fly (Musca domestica); assay: Use Example J: activity against house fly; conditions: adult houseflies on treated filter papers; 22 C for 24 hours
Method: Activity against house fly (Musca domestica)
Aliquots (0.7 ml) of acetone solutions or suspensions of test compounds at various concentrations were applied to filter papers (9 cm diameter) placed in the bottom of petri dishes (9 cm diameter) closed by glass lids. After evaporation of solvent, the treated surfaces, together with controls treated with acetone alone, were then infested with adult houseflies, (Musca domestica) and held at 22 C for 24 hours. The percentage mortality of the insects was then recorded.

[8] = tested on: corn rootworm (Diabrotica undecimpunctata); assay: Use Example E: soil insecticide activity against eggs/larvae of the corn rootworm; conditions: aqueous preparation 0.0025%, 5 ml into 50 cm^3 earth, 10 days at 25 C
Method: Soil insecticide activity against eggs/larvae of the corn rootworm (Diabrotica undecimpunctata)
5 ml of these preparations were pipetted into 300 ml clear plastic beakers, containing 50 cm^3 earth and ca. 50 Diabrotica eggs, as well as 2 presoaked maize seeds. The sealed pots were left for 10 days under extended daylight conditions at 25 C. The criterion for judging the activity after 10 days was the larvicidal activity and the root growth of the emerging maize plants in the treated pots in comparison with untreated controls.

Row | Compound | mortality at 0.1 % [1] | mortality at 0.1 % [2] | mortality at 0.1 % (Aphis fabae) | mortality at 0.1 % [3] | mortality at 0.1 % [5] | further results
1 | C=C(C)C(C)(C)CCCc1cccc(Oc2ccccc2)c1 [Example 1, 6-(3-Phenoxyphenyl)-2,3,3,-trimethyl-1-hexene] | – | – | – | – | – | activity [1]: 80-100%; activity ([2]; brown rice-hopper, in vivo): ≥ 80%
2 | CC(C)(COCc1ccc(F)c(Oc2ccccc2)c1)C1=CCCCC1 [Example 2, 2-(Cyclohexen-1-yl)-2-methyl-1-(4-fluoro-3-phenoxybenzyloxy)propane] | 80 to 100% | ≥ 80% | ≥ 80% | – | – | –
3 | C=C(C)C(C)(C)CCCc1ccc(F)c(Oc2ccccc2)c1 [Example 4, 6-(4-fluoro-3-phenoxyphenyl)-2,3,3-trimethyl-1-hexene] | 80 to 100% | ≥ 80% | ≥ 80% | 80 to 100% | 80 to 100% | activity [4]: 80 - 100%
4 | C=C(C)C(C)(C)COCc1ccc(F)c(Oc2ccccc2)c1 [Example 5, 4-(4-fluoro-3-phenoxybenzyloxy)-2,3,3-trimethyl-1-butene] | 80 to 100% | – | ≥ 80% | 80 to 100% | 80 to 100% | LC50 [6]: < 300 µg/mL; LC50 (Boophilus microplus): ≤ 100 µg/mL; LDso [7]: less than 1000 mg/m^2; activity [4]: 80 - 100%
5 | C=C(Br)C(C)(C)COCc1cccc(Oc2ccccc2)c1 [Example 7, 2-bromo-3,3-dimethyl-4-(3-phenoxy-benzyloxy)-1-butene] | 80 to 100% | – | ≥ 80% | 80 to 100% | – | –
6 | CC(C)(COCc1cccc(Oc2ccccc2)c1)C1=CCCCC1 [Example 8, 2-(cyclohexen-1-yl)-2-methyl-1-(3-phenoxybenzyloxy)propane] | 80 to 100% | – | – | – | 80 to 100% | –
7 | CC(C)(COCc1ccc(F)c(Oc2ccccc2)c1)C1=CCCC1 [Example 10, 2-(cyclopenten-1-yl)-1-(4-fluoro-3-phenoxybenzyloxy)-2-methylpropane] | – | – | ≥ 80% | 80 to 100% | 80 to 100% | –
8 | C=C(c1ccccc1)C(C)(C)COCc1ccc(F)c(Oc2ccccc2)c1 [Example 14, 3,3-dimethyl-4-(4-fluoro-3-phenoxy-benzyloxy)-2-phenyl-1-butene] | – | ≥ 80% | – | – | – | –
9 | C=C(c1ccccc1)C(C)(C)COCc1cccc(-c2ccccc2)c1C [Example 15, 3,3-dimethyl-4-(2-methyl-3-phenyl-benzyloxy)-2-phenyl-1-butene] | – | – | – | 80 to 100% | – | –
10 | C=C(C)C(C)(C)COCc1cccc(Oc2ccccc2)c1 [Example 16, 4-(3-phenoxybenzyloxy)-2,3,3-trimethyl-1-butene] | – | ≥ 80% | – | – | – | LC50 [6]: < 300 µg/mL; LC50 (Boophilus microplus): ≤ 100 µg/mL; LDso [7]: less than 1000 mg/m^2; mortality at 0.0025 % ([8]; Diabrotica undecimpunctata, soil, 240 h, read-out: larvicidal activity): 90 to 100%; root growth of the emerging maize plants ([8]; in comparison with untreated controls): good root growth
11 | C=C(C)C(C)(C)COCc1cccc(Oc2ccccc2)n1 [Example 17, 4-(6-phenoxypyridin-2-ylmethoxy)-2,3,3-trimethyl-1-butene] | 80 to 100% | ≥ 80% | – | – | – | –
12 | C=C(C)C(C)(C)CCCc1cccc(Oc2ccccc2)n1 [Example 18, 6-(6-phenoxypyridin-2-yl)-2,3,3-trimethyl-1-hexene] | 80 to 100% | ≥ 80% | ≥ 80% | 80 to 100% | – | –
13 | C=C(C)C(C)(C)COCc1cccc(Oc2ccc(Cl)cc2)c1 [Example 21, 4-[3-(4-chlorophenoxy)benzyloxy]-2,3,3-trimethyl-1-butene] | 80 to 100% | ≥ 80% | ≥ 80% | 80 to 100% | – | –
14 | C=C(C)C(C)(C)COCc1cccc(Oc2cccc(C(F)(F)F)c2)c1 [Example 24, 4-[3-(3-trifluoromethylphenoxy)-benzyloxy]-2,3,3-trimethyl-1-butene] | – | ≥ 80% | – | – | – | –
15 | C=C(C(C)C)C(C)(C)COCc1cccc(Oc2ccccc2)c1 [Example 25, 3-methylene-5-(3-phenoxy-benzyloxy)-2,4,4-trimethylpentane] | – | ≥ 80% | – | – | – | –
16 | C=C(C(C)C)C(C)(C)COCc1ccc(F)c(Oc2ccccc2)c1 [Example 26] | – | – | – | – | – | activity [1]: 80-100%; activity (Aphis fabae; aphis fabae, in vivo): ≥ 80%
17 | CC(C)(COCc1ccc(F)c(Oc2ccccc2)c1)C1=CCOCC1 [Example 44, 1-(4-fluoro-3-phenoxybenzyloxy)-2-methyl-2-(4-oxacyclohexen-1-yl)propane] | – | ≥ 80% | – | – | – | –
18 | C=C(C)C1(COCc2ccc(F)c(Oc3ccccc3)c2)CC1 [Example 51, 2-(4-fluoro-3-phenoxybenzyloxy-methyl)-2-isopropenylcyclopropane] | 80 to 100% | ≥ 80% | ≥ 80% | – | – | –
19 | C=C(Br)C(C)(C)COCc1ccc(F)c(Oc2ccccc2)c1 [Example 59, 2-bromo-3,3-dimethyl-4-(4-fluoro-3-phenoxybenzyloxy)-1-butene] | 80 to 100% | ≥ 80% | ≥ 80% | 80 to 100% | 80 to 100% | –
20 | C=C(I)C(C)(C)COCc1ccc(F)c(Oc2ccccc2)c1 [Example 60, 3,3-dimethyl-2-iodo-4-(4-fluoro-3-phenoxybenzyloxy)-1-butene] | – | ≥ 80% | ≥ 80% | 80 to 100% | – | –
21 | C=C(c1ccccc1)C(C)(C)COCc1c(F)c(F)c(F)c(F)c1F [Example 61, 3,3-dimethyl-4-(2,3,4,5,6-pentafluoro-benzyloxy)-2-phenyl-1-butene] | – | – | – | 80 to 100% | – | –
22 | CC(C)(COCc1c(F)c(F)c(F)c(F)c1F)C1=CCCC1 [Example 62, 2-(cyclopenten-1-yl)-2-methyl-1-(2,3,4,5,6-pentafluorobenzyloxy)propane] | – | – | – | – | 80 to 100% | –
23 | C=C(I)C(C)(C)CCCc1cccc(Oc2ccccc2)c1 [Example 63, 3,3-dimethyl-2-iodo-6-(3-phenoxy-phenyl)-1-hexene] | – | ≥ 80% | – | – | 80 to 100% | –
